EP0563345B1, “NOVEL 4-ARYLPIPERAZINES AND 4-ARYLPIPERIDINES” (MCNEILAB, INC., priority 1991, dated 1993)
Structures can show the parent of a compound that is named as a salt. Where two headings read alike, the source gives them in different places.

Experiments:
[1] = system: Male, Fischer 344 rats; test: Block of Conditioned Avoidance Responding (Rat) test (CAR); conditions: for CAR 15 mg/kg IP Administration (% change CAR) / CAR 5 mg/kg IP Administration (% change CAR): negative number = blockade of CAR
Summary of the method: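 Trained rats at 90% avoidance ran 60-trial sessions with a 15-sec light/tone conditioned stimulus, then a 0.7 mA shock. Vehicle was given on Day 1 and test compound on Day 2, with matched route and pretreatment time. The % change in CAR versus Day 1 and % escape failures are group means, with escape loss at 5 mg/kg unless noted.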

[2] = biological target: T1, D-2 (dopamine-2) receptors (Rattus norvegicus, UniProt P61169); test: biochemical; format: binding, male, Wistar rats; conditions: rat striatum P2 fraction, 3H-spiperone 0.05 nM; read-out: Receptor Binding (Ki nM) D2
T1 construct: The D2 assay employed a P2 fraction from the striatum, the ligand ^3H-spiperone at a concentration of 0.05 nM; from tissue; host or cells: rat striatum, P2 fraction (synaptosomal membranes), male Wistar rats
T1 sequence (P61169 whole entry): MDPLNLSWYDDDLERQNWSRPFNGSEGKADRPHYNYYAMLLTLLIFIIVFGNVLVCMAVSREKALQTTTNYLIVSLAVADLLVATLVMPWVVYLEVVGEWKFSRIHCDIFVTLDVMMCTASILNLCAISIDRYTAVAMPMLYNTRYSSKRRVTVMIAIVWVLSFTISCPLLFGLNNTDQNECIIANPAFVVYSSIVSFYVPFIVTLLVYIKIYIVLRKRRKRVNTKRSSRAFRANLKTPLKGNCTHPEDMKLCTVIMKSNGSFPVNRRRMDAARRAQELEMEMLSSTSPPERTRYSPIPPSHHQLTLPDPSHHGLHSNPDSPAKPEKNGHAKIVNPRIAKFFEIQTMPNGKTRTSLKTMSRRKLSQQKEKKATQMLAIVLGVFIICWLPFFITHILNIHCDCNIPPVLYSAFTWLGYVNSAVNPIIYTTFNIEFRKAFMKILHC
Method: The dopamine D2 binding activity of compounds was determined using a P2 fraction (synaptosomal membranes) prepared from male, Wistar rats.
The data from this assay were analyzed by calculating the percent inhibition of the binding of the tritiated ligands by given concentrations of the test compound. Kl values, where given, were obtained from the logit analysis of concentration-inhibition curves.

[3] = Overall statement on the antipsychotic screens (CAR test and D-2 affinity); conditions: as far as tested
Excerpt: (§1) The antipsychotic activity of the compounds of the invention may be determined by the Block of Conditioned Avoidance Responding (Rat) test (CAR), references being Cook, L. and E. Weidley in Ann.

[4] = system: Male Charles-River rats; test: Rat Glass Bead Test (propulsive motility of the distal colon); format: in vivo; conditions: mean expulsion time of glass bead
Method: The rat glass bead test is used to evaluate the action of compounds on propulsive motility of the distal colon. Male Charles-River rats weighing 50-90 grams are fasted for at least 18 hours in individual cages with water provided. Groups of rats are then dosed by the indicated route at the appropriate pretreatment time. A 4 mm glass bead is then inserted 3.5 cm into the distal colon through the anus using a 4 mm diameter glass rod. Rats are then placed in open top glass jars and observed for 60 minutes. The time for expulsion of the bead is noted for each rat. Rats not expelling the bead after 60 minutes are necropsied and the presence of the bead in the colon confirmed. […] Statistical analysis is done using one way analysis of variance and Fisher's LSD comparison. A probability of less than 0.05 is considered to be statistically significant.

[5] = system: spontaneously hypertensive rats (SHR model); test: Spontaneously Hypertensive Rat Test (SHR); format: in vivo; conditions: 30 mg/kg p.o.
Method: Compounds #37 and 87 were also evaluated in the fully recovered, unanesthetized, unrestrained spontaneously hypertensive rats (SHR model) which is described hereinafter. They were deemed to be active because at doses of 30 mg/kg p.o. they caused a drop in the mean arterial pressure. For compound #37 the drop was 26 mm of mercury with an onset of 0.5 h and a duration of 3.5 h. For compound no. 87 the drop was 37 mm of mercury with an onset of 0.25 h and a duration of 5.75 h.
Adult male 350-450 g SHR [Tac:N(SHR)FBR], Taconic Farms, Germantown, New York are prepared for direct measurement of arterial pressure, housed in individual cages, and maintained on constant intraarterial infusion to assure catheter patency. Rats are permitted a 7-day postoperative recovery period to allow complete restoration of salt/water balance and body weight. Rats are assigned to vehicle or drug treatment groups (n=3/group). Drugs are uniformly suspended in 1% methylcellulose vehicle and given orally by gavage. Parameters are sampled continuously from the conscious, unrestrained rats and averaged every 15 min for the first 2 h and then hourly through 24 h after dosing. In order to take diurnal changes that are not drug related into account, 24 h timecourse curves for each parameter in drug treated SHR are compared to those from the concurrent control group. Since the average standard between-subject error is about 5 mm of mercury for arterial pressure parameters and about 11 bpm for heart rate, differences from concurrent control of greater than 10 mm of mercury and 22 bpm (2 SEM) are considered drug-related activity. Onset and duration are calculated from any pattern that achieves a maximum difference that meets these criteria.

[6] = Overall statement on the other non-antipsychotic screens; conditions: screens in which they have been tested to date
Excerpt: as §1

[7] = system: apomorphine-induced emesis in the dog; test: Block of Apomorphine-Induced Emesis In Dogs; format: in vivo; conditions: for ED50: Canis lupus familiaris, read-out: ED50 and 95% confidence limits, apomorphine HCl 1 mg/kg s.c.
Method: This latter test is used in the preclinical evaluation of antipsychotics, and it also implies that the compounds could be used clinically for the treatment of emesis.
This procedure was modified from that described in Janssen, P. A. J.; Niemegeers, C. J. E.; Schellekens, K. Arzn.-Forch. […] The animals were treated with a test dose of apomorphine HCI to produce retching, and the effectiveness of a test compound in blocking that retching is determined. […] Following one of several pretreatments, a challenge dose of 1 mg/kg apomorphine HCl s.c. was given and the number of retches that occurred during the following 20 min period was recorded. At the start of the series, and after one week on testing, all dogs were pretreated with saline before the challenge dose of apomorphine HCI was administered. All of the saline-pretreated animals retched. […] Data were analyzed to determine the ED50 dose for blocking apomorphine HCI-induced emesis.

[8] = system: male, Sprague-Dawley rats; test: Catalepsy Test in Rats; conditions: 50 mg/kg IP
Method: The catalepsy test is taken to evaluate the liability of anti-psychotics to produce extra-pyramidal side effects.
The forepaws of male, Sprague-Dawley rats obtained from Charles River (170-240 g) were gently placed on a black cork (3.5 cm high) and the time until the forepaw was removed was recorded. Each rat was given three trials with a maximum time of 60 sec on the cork. The sum of the three trials was taken as the score for each rat. Percent catalepsy was defined as the percent of 180 sec (maximum time) that a rat permitted its forepaw to rest on the cork. […] In each test session, two control groups were used; animals treated with saline (or vehicle) served as a negative control and animals treated with haloperidol were a positive control.

CC(O)COc1ccccc1N1CCN(Cc2cccc(C(=O)N3CCCCC3)c2)CC1 (centres unmarked) [Compound 27]
CAR 15 mg/kg IP Administration (% change CAR) [1]: -8%
(Escape Loss) % failures to escape ([1]; at CAR 15 mg/kg IP): 0%
Ki [2]: 703 nM
potential antipsychotic activity in either of the screens [3]: not exhibited potential antipsychotic activity

O=C(c1cccc(CN2CCN(c3ncccn3)CC2)c1)N1CCCCC1 [Compound 37]
CAR 5 mg/kg IP Administration (% change CAR) [1]: -18%
(Escape Loss) % failures to escape ([1]; at CAR 5 mg/kg IP): 1%
Ki [2]: > 1000 nM
Glass bead expulsion time ([4]; PO, 10.0 mg/kg): 25 min
activity in the SHR model [5]: active
drop in the mean arterial pressure [5]: 26 mm of mercury
duration of the drop in mean arterial pressure [5]: 3.5 h
onset of the drop in mean arterial pressure [5]: 0.5 h
potential antipsychotic activity in either of the screens [3]: not exhibited potential antipsychotic activity

COc1ccc(OC)c(N2CCN(Cc3cccc(C(=O)N4CCCC4)c3)CC2)c1 [Compound 47]
CAR 15 mg/kg IP Administration (% change CAR) [1]: 2%
(Escape Loss) % failures to escape ([1]; at CAR 15 mg/kg IP): 0%
Ki [2]: > 1000 nM
potential antipsychotic activity in either of the screens [3]: not exhibited potential antipsychotic activity
activity in any of the other non-antipsychotic screens [6]: not exhibited activity

COc1cccc(OC)c1N1CCN(Cc2cccc(C(=O)N3CCCCC3)c2)CC1 [Compound 48]
CAR 15 mg/kg IP Administration (% change CAR) [1]: -1%
(Escape Loss) % failures to escape ([1]; at CAR 15 mg/kg IP): 1%
Ki [2]: > 1000 nM
Glass bead expulsion time ([4]; IP, 1.0 mg/kg): 14 min
potential antipsychotic activity in either of the screens [3]: not exhibited potential antipsychotic activity
activity in any of the other non-antipsychotic screens [6]: not exhibited activity

CC1CN(Cc2cccc(C(=O)N3CCCCC3)c2)CCN1c1ccccc1 (centres unmarked) [Compound 8]
Ki [2]: > 1000 nM
potential antipsychotic activity in either of the screens [3]: not exhibited potential antipsychotic activity
activity in any of the other non-antipsychotic screens [6]: not exhibited activity

O=C(c1cccc(CN2CCN(c3ccc(Cl)cc3)CC2)c1)N1CCCCC1 [Compound 87]
CAR 15 mg/kg IP Administration (% change CAR) [1]: -5%
(Escape Loss) % failures to escape ([1]; at CAR 15 mg/kg IP): 0%
Glass bead expulsion time ([4]; IP, 1.0 mg/kg): 28 min
activity in the SHR model [5]: active
drop in the mean arterial pressure [5]: 37 mm of mercury
duration of the drop in mean arterial pressure [5]: 5.75 h
onset of the drop in mean arterial pressure [5]: 0.25 h
potential antipsychotic activity in either of the screens [3]: not exhibited potential antipsychotic activity

O=C(c1cccc(CN2CCN(c3ccc4c(c3)OCO4)CC2)c1)N1CCCCC1 [Compound 36]
CAR 5 mg/kg IP Administration (% change CAR) [1]: -10%
(Escape Loss) % failures to escape ([1]; at CAR 5 mg/kg IP): 0%
Ki [2]: > 1000 nM
Glass bead expulsion time ([4]; PO, 10.0 mg/kg): 7.4 min
potential antipsychotic activity in either of the screens [3]: not exhibited potential antipsychotic activity

CC(C)Oc1ccccc1N1CCN(Cc2cccc(C(=O)N3CCCCC3)c2)CC1 [Compound 53, 1-[3-[[4-[2-(1-Methylethoxy)phenyl]-1-piperazinyl]methyl]benzoyl]piperidine Hydrochloride (3:2)]
CAR IP Administration (% change CAR) at 7.5 mg/kg ([1]; 7.5 mg/kg IP): -91%
(Escape Loss) % failures to escape ([1]; at CAR 7.5 mg/kg IP): 8%
ED50 ([7]; intravenous (IV) administration): 0.03 mg/kg
ED50 ([7]; oral administration, 1 h pretreatment): 0.038 mg/kg
ED50 ([7]; oral administration, 4 h pretreatment): 0.263 mg/kg
inhibition of apomorphine-induced emesis in the dog ([7]; dog, in vivo): particularly potent inhibitors
Catalepsy (%) ([8]; Pre-Reaction Time 60 min): 32.4%
Catalepsy (%) ([8]; Pre-Reaction Time 240 min): 47.9%

CC(C)Oc1ccccc1N1CCN(Cc2cccc(C(=O)N3CCCCC3C(=O)O)c2)CC1 (centres unmarked) [Compound 24]
Ki [2]: > 1000 nM
potential antipsychotic activity in either of the screens [3]: not exhibited potential antipsychotic activity
activity in any of the other non-antipsychotic screens [6]: not exhibited activity

O=C(c1cccc(CN2CCN(c3ncccn3)CC2)c1)N1CCC[C@H]1CO [Compound 20]
CAR 15 mg/kg IP Administration (% change CAR) [1]: -17%
(Escape Loss) % failures to escape ([1]; at CAR 15 mg/kg IP): 1%
Ki [2]: > 1000 nM
potential antipsychotic activity in either of the screens [3]: not exhibited potential antipsychotic activity
activity in any of the other non-antipsychotic screens [6]: not exhibited activity
